According to publication PMC4503722, “Novel Phenotypic Outcomes Identified for a Public Collection of Approved Drugs from a Publicly Accessible Panel of Assays” (PLoS ONE, 2015):

Tests used:
[1] = system: NCI-H716 cells; experiment: cells; assay type: cell-based, Human; conditions: assay number 12
[2] = system: STC-1 cell line; assay type: cell-based, mouse; conditions: assay number 13
[3] = system: alkaline phosphatase (ALP) activity in C2C12 cells; assay type: cell-based; conditions: assay number 6; concentration response
[4] = system: nuclear β-catenin in C2C12 cells; experiment: cells; assay type: cell-based; conditions: assay number 5; concentration response
[5] = target: T1, hGSK3b (Homo sapiens, UniProt P49841); experiment: Cerep LANCE kinase assay hGSK3b (S1 assay 34); assay type: biochemical; conditions: assay number 34
T1 construct: purchased Cerep (LANCE kinase assay platform, contract assay)

[6] = system: HeLa cells; experiment: cells; assay type: cell-based; conditions: for Hela CellCycMod PI 2N IC50/EC50: assay number 14; for Hela CellCycMod PI S Phase IC50/EC50: assay number 15; for Hela CellCycMod PI 4N IC50/EC50: assay number 16; for Hela CellCycMod PI MI IC50/EC50: assay number 17; for Hela CellCycMod PI Cell Number IC50/EC50: assay number 18
[7] = system: Colo320; experiment: cells; assay type: cell-based; conditions: assay number 27
[8] = system: SW480; experiment: cells; assay type: cell-based; conditions: assay number 24
[9] = target: T2, hp70S6K1 (RPS6KB1) (Homo sapiens, UniProt P23443); experiment: Cerep LANCE kinase assay hp70S6K1 (S1 assay 31); assay type: biochemical; conditions: assay number 31
T2 construct: purchased Cerep (LANCE kinase assay platform, contract assay)

[10] = system: DLD-1; experiment: cells; assay type: cell-based; conditions: assay number 23
[11] = target: T3, hFLT3 (Homo sapiens, UniProt P36888); experiment: Cerep LANCE kinase assay hFLT3 (S1 assay 35); assay type: biochemical; conditions: assay number 35
T3 construct: purchased Cerep (LANCE kinase assay platform, contract assay)

[12] = system: INS-1E cells; experiment: cells; assay type: cell-based, rat; conditions: assay number 8; 5 mM glucose;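 note: secreted insulin quantified by homogeneous immunoassay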
[13] = system: endothelial tube formation in co-cultures of ECFCs and ADSCs treated with VEGF; experiment: cells; assay type: cell-based, human
[14] = target: T4, hJAK2 (Homo sapiens, UniProt O60674); experiment: Cerep LANCE kinase assay hJAK2 (S1 assay 33); assay type: biochemical; conditions: assay number 33
T4 construct: purchased Cerep (LANCE kinase assay platform, contract assay)

[15] = system: ECFC/ADSC co-culture cell nuclei number
[16] = target: T5, hKDR (Homo sapiens, UniProt P35968); experiment: Cerep LANCE kinase assay hKDR (S1 assay 32); assay type: biochemical; conditions: assay number 32
T5 construct: purchased Cerep (LANCE kinase assay platform, contract assay)

[17] = system: HT-29; experiment: cells; assay type: cell-based; conditions: assay number 28
[18] = system: HCT116 cells treated with a GSK3β inhibitor; experiment: cells; assay type: cell-based; conditions: assay number 26; GSK3b inhibitor pretreated
[19] = system: RKO; experiment: cells; assay type: cell-based; conditions: assay number 29
[20] = system: SNU-C1; experiment: cells; assay type: cell-based; conditions: assay number 30
[21] = system: HCT116; experiment: cells; assay type: cell-based; conditions: assay number 25; basal

T4 sequence (O60674 whole entry): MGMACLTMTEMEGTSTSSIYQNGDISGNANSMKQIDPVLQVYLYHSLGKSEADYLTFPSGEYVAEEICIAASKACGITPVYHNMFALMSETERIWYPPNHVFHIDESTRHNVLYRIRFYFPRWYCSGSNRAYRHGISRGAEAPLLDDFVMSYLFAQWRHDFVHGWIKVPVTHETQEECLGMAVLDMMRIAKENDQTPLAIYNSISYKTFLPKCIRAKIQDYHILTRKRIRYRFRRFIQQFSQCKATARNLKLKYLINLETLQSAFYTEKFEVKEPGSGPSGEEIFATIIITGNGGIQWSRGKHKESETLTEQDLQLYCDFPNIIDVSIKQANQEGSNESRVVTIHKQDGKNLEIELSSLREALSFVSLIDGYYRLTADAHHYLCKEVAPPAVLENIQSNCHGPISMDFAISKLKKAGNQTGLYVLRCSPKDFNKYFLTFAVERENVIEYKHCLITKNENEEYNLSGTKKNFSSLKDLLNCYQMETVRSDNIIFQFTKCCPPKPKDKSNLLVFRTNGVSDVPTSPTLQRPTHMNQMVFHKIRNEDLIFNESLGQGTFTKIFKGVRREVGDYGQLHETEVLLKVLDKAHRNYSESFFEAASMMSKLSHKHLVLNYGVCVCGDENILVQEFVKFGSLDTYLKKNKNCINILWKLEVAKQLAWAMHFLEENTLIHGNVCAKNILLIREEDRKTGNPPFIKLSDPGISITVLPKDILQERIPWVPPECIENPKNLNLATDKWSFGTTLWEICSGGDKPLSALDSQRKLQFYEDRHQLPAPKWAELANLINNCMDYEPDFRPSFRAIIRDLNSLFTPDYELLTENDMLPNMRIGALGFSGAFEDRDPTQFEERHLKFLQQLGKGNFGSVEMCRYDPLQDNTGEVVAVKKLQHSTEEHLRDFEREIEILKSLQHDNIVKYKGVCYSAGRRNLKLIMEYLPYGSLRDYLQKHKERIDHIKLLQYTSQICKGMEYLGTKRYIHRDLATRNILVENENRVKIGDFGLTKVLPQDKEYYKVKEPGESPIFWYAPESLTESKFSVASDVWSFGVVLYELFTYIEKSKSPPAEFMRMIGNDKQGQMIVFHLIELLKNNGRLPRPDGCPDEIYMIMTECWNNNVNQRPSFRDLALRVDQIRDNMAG
T5 sequence (P35968 20-1356): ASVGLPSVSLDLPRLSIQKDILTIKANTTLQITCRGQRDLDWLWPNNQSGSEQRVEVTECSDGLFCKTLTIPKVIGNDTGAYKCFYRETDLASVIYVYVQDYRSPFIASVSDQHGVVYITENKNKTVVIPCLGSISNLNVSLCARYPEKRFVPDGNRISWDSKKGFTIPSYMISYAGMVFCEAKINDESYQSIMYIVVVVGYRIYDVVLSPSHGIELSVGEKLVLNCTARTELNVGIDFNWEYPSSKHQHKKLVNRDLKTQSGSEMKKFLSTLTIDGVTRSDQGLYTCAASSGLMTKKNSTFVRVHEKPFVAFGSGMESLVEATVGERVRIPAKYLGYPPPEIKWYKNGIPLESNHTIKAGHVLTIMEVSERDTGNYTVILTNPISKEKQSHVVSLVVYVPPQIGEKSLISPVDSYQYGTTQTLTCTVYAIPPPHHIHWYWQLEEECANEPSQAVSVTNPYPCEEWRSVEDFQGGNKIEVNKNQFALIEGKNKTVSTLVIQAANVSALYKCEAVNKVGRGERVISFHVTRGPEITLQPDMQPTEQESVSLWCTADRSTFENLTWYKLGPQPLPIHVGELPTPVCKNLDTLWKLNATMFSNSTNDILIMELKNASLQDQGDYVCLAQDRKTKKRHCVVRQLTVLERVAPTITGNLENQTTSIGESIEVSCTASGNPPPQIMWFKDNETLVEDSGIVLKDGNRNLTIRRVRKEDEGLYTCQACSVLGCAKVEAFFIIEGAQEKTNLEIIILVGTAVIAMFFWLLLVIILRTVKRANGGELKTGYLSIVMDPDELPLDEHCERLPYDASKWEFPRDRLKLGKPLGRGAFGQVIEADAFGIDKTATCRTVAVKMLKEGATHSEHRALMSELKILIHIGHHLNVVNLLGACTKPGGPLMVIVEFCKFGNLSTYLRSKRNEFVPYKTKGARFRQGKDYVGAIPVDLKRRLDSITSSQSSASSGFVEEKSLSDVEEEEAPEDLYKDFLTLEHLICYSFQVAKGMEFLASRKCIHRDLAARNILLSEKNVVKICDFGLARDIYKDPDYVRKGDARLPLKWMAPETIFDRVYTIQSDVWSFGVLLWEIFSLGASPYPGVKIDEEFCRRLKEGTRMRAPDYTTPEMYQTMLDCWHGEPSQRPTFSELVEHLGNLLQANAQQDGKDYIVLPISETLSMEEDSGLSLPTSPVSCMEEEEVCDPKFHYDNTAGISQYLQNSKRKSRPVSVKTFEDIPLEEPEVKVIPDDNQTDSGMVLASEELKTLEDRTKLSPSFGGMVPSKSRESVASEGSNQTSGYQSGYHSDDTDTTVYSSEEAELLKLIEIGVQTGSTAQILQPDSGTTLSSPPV
T1 sequence (P49841 whole entry): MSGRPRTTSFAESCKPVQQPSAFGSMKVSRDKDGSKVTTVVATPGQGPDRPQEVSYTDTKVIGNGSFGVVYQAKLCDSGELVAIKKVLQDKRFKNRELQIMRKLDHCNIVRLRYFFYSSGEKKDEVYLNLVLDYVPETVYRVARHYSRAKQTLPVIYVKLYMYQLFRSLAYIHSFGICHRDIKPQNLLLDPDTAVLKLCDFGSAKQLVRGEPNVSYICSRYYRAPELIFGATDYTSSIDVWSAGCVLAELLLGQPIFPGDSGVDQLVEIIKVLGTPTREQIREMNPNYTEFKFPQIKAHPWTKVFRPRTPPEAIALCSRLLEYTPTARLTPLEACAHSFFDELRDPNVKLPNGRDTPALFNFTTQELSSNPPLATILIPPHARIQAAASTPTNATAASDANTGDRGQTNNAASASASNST
T3 sequence (P36888 27-993): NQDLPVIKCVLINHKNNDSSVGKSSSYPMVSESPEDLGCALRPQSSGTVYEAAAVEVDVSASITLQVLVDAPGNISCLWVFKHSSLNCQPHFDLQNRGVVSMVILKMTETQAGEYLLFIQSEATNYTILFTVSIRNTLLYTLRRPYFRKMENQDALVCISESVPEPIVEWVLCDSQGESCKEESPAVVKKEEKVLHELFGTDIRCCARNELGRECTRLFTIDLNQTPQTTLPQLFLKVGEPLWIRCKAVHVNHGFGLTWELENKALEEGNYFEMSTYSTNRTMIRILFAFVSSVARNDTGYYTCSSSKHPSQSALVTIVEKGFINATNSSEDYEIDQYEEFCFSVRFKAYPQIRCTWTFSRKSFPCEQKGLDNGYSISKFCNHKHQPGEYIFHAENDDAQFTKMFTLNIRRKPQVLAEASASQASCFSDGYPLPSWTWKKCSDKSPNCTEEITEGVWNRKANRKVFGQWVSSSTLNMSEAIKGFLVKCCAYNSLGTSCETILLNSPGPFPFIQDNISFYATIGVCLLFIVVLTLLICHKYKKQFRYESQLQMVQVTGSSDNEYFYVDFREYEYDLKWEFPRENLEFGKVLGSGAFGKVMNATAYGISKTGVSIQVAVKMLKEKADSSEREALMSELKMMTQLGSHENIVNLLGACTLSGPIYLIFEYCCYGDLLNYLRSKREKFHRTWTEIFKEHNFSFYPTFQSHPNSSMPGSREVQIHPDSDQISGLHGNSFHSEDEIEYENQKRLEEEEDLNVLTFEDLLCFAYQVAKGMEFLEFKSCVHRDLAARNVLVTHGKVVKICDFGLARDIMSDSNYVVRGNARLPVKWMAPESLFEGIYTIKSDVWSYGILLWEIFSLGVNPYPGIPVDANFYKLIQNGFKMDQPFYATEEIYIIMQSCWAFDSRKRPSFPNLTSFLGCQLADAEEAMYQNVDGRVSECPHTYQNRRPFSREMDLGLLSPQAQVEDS
T2 sequence (P23443 whole entry): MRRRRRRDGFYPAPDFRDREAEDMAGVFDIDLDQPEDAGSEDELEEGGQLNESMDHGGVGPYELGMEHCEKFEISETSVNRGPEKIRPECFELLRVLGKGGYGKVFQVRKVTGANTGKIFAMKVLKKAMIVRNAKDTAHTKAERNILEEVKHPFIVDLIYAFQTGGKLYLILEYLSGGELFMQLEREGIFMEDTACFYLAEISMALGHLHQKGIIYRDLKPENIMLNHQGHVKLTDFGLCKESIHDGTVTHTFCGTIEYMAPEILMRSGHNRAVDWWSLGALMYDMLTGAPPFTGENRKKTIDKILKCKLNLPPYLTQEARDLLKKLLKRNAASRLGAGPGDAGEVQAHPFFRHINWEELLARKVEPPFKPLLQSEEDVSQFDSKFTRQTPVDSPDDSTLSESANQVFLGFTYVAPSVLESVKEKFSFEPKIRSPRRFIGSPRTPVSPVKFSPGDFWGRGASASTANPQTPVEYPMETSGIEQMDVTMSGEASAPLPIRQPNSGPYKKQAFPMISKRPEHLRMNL

SMILES	WntCondMedia_Alk Phos C2C12 IC50/EC50 [3] [µM]	WntCondMedia_bCatenin C2C12 IC50/EC50 [4] [µM]	hGSK3b LANCE IC50/EC50 [5] [µM]	Hela CellCycMod PI 2N IC50/EC50 [6] [µM]	Hela CellCycMod PI 4N IC50/EC50 [6] [µM]	Hela CellCycMod PI MI IC50/EC50 [6] [µM]	Hela CellCycMod PI Cell Number IC50/EC50 [6] [µM]	Basal_Viability ATP Colo 320 IC50/EC50 [7] [µM]	Basal_Viability ATP SW480 IC50/EC50 [8] [µM]	hp70S6K1 LANCE IC50/EC50 [9] [µM]	Basal_Viability ATP DLD-1 IC50/EC50 [10] [µM]	hFLT3 LANCE IC50/EC50 [11] [µM]	VEGF_ADSC\ECFC Angio CD31 TubeArea IC50/EC50 [13] [µM]	hJAK2 LANCE IC50/EC50 [14] [µM]	VEGF_ADSC\ECFC Angio Hoechst NucArea IC50/EC50 [15] [µM]	hKDR LANCE IC50/EC50 [16] [µM]	Basal_Viability ATP HT-29 IC50/EC50 [17] [µM]	GSK3b inh pretreated_Viability ATP HCT116 IC50/EC50 [18] [µM]	Basal_Viability ATP RKO IC50/EC50 [19] [µM]	Basal_Viability ATP SNU-C1 IC50/EC50 [20] [µM]	further results
C#C[C@]1(O)CC[C@H]2[C@@H]3CCc4cc(OC5CCCC5)ccc4[C@H]3CC[C@@]21C [NCGC00166146-02]	> 20	> 20	–	–	–	–	–	–	–	–	–	–	–	–	–	–	–	–	–	–	hNCI-H716 GLP1 Secretion IC50/EC50 [1]: 17.5795 µM; mSTC-1 GLP1 Secretion IC50/EC50 [2]: > 40 µM
CC(=O)Oc1ccc(C2(c3ccc(OC(C)=O)cc3)Oc3ccccc3NC2=O)cc1 [NCGC00182998-01]	13.9611	> 20	> 20	> 10	> 10	> 10	5.7532	> 20	9.1881	> 20	19.7291	> 20	2.2736	> 20	> 10	> 20	> 20	3.2604	9.2255	> 20	Hela CellCycMod PI S Phase IC50/EC50 [6]: > 10 µM; 5mMGluc_INS1E SecretionMod IC50/EC50 [12]: > 33.33 µM
c1ccc2c(c1)Sc1ccccc1N2CC1CN2CCC1CC2 (centres unmarked) [NCGC00183046-03]	> 20	> 20	–	–	–	–	–	–	–	–	–	–	9.4389	–	> 10	–	–	> 20	–	–	Basal_Viability ATP Colo 320 IC50/EC50 ([7]; basal): > 20 µM; Basal_Viability ATP SW480 IC50/EC50 ([8]; basal): 5.431 µM; Basal_Viability ATP DLD-1 IC50/EC50 ([10]; basal): > 20 µM; hNCI-H716 GLP1 Secretion IC50/EC50 [1]: > 40 µM; mSTC-1 GLP1 Secretion IC50/EC50 [2]: > 40 µM; Basal_Viability ATP HCT116 IC50/EC50 [21]: > 20 µM; Basal_Viability ATP HT-29 IC50/EC50 ([17]; basal): > 20 µM; Basal_Viability ATP RKO IC50/EC50 ([19]; basal): 8.4586 µM; Basal_Viability ATP SNU-C1 IC50/EC50 ([20]; basal): > 20 µM
Cc1nc2ccc(CN(C)c3ccc(C(=O)N[C@@H](CCC(=O)O)C(=O)O)s3)cc2c(=O)[nH]1 [NCGC00229704-01]	0.0042	0.0127	3.99	> 10	> 10	> 10	> 10	> 20	0.001	> 20	> 20	> 20	0.3544	> 20	> 10	> 20	> 20	0.0023	0.00288	> 20	Basal_Viability ATP HCT116 IC50/EC50 [21]: 0.00424 µM
Cc1ccc2nc(N)[nH]c(=O)c2c1Sc1ccncc1.Cl.Cl [NCGC00263580-01]	0.2444	0.7099	> 20	> 10	> 10	> 10	> 10	> 20	2.241	17.8	> 20	> 20	7.3662	> 20	> 10	> 20	4.747	0.8299	0.3429	> 20	Hela CellCycMod PI S Phase IC50/EC50 [6]: > 10 µM; Basal_Viability ATP HCT116 IC50/EC50 [21]: 3.495 µM
